# Measured values reported in US8541588B2, “Sulfonamide derivatives” (Pfizer Limited, priority 2009, dated 2013).
# Biological target: T1, Nav1.7 (or SCN9A) channel; HEK cells stably transfected with hSCN9A (Homo sapiens, UniProt Q15858)
# T1 construct: expressed in transfected cells
# Experiment: Nav1.7 block, PatchXpress 7000 automated whole-cell voltage clamp, estimated IC50 (EIC50)
# Assay type: cell-based
# Details: estimated IC50; hSCN9A HEK cells, PatchXpress platform; Examples 283-814
# T1 sequence (Q15858 whole entry): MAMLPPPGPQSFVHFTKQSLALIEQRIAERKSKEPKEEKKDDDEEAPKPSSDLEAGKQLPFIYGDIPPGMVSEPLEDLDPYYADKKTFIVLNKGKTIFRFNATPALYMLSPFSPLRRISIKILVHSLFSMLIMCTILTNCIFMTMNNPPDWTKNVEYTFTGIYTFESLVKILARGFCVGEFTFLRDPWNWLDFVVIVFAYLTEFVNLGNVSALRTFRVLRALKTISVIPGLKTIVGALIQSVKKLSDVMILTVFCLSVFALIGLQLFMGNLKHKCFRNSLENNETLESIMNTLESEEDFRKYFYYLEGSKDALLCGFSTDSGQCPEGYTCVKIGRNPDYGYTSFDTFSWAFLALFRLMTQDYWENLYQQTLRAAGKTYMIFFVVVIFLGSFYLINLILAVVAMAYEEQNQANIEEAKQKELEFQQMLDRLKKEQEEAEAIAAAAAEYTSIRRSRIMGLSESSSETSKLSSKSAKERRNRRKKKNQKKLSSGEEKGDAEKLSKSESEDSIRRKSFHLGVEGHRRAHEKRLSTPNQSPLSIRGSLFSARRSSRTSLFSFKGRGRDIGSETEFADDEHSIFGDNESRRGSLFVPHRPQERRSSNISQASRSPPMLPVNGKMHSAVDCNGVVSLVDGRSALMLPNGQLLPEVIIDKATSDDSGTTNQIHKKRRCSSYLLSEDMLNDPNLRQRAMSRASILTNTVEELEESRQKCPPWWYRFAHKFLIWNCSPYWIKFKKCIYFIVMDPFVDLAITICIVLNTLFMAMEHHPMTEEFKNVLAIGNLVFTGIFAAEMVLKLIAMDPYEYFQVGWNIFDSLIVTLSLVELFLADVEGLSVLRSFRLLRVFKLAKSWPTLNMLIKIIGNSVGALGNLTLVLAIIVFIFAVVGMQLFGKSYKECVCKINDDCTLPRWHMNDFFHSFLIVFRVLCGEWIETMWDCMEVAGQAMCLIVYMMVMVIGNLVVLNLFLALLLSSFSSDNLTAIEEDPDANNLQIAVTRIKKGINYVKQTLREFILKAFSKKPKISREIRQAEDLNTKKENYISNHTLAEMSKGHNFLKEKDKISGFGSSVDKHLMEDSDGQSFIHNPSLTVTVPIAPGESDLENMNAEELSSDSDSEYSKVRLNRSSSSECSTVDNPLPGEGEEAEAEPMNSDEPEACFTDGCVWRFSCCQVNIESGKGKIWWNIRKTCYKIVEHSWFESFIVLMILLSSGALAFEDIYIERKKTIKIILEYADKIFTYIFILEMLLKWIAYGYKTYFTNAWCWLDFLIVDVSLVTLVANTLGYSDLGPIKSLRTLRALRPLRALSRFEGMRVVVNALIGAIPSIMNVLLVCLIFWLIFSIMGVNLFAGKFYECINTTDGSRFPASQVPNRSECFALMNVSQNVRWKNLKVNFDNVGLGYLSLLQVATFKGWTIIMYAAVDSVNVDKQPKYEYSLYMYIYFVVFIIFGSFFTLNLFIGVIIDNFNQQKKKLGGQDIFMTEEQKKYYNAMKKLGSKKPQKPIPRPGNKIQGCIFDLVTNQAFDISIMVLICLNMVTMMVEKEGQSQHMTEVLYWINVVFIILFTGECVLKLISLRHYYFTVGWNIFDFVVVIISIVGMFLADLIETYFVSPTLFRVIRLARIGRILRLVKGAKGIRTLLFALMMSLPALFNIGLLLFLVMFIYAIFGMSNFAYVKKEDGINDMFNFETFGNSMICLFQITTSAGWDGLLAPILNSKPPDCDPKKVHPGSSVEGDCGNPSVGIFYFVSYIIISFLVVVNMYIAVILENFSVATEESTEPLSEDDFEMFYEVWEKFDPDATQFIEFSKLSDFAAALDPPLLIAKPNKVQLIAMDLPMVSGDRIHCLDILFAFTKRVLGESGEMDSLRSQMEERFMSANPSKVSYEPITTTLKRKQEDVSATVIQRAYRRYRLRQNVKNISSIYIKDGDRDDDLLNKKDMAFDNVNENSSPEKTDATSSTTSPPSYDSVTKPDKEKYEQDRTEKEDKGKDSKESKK
row,Structure (SMILES),IC50 [nM]
1,"Cn1nc(C(F)(F)F)cc1-c1ccc(Oc2cc(F)c(S(=O)(=O)Nc3ncc(F)s3)cc2F)cc1 [Example 682, 2,5-difluoro-N-(5-fluoro-1,3-thiazol-2-yl)-4-{4-[1-methyl-3-(trifluoromethyl)-1H-pyrazol-5-yl]phenoxy}benzenesulfonamide]",710
2,"Cn1nc(C(F)(F)F)cc1-c1ccc(Oc2ccc(S(=O)(=O)Nc3nccs3)cc2F)cc1 [Example 684, 3-fluoro-4-{4-[1-methyl-3-(trifluoromethyl)-1H-pyrazol-5-yl]phenoxy}-N-1,3-thiazol-2-ylbenzenesulfonamide]",1000
3,"O=S(=O)(Nc1nccs1)c1ccc(Oc2ccc(F)cc2-c2cn[nH]c2)c(F)c1 [Example 686, 3-fluoro-4-[4-fluoro-2-(1H-pyrazol-4-yl)phenoxy]-N-1,3-thiazol-2-ylbenzenesulfonamide]",330
4,"COc1cc(-c2cc(F)ccc2Oc2cc(F)c(S(=O)(=O)Nc3cscn3)cc2Cl)n(C)n1 [Example 688, 5-Chloro-2-fluoro-4-[4-fluoro-2-(3-methoxy-1-methyl-1H-pyrazol-5-yl)-phenoxy]-N-1,3-thiazol-4-yl-benzenesulfonamide]",5100
5,"O=S(=O)(Nc1cscn1)c1cc(Cl)c(Oc2ccc(C(F)(F)F)cc2-c2cncc(CO)c2)cc1F [Example 689, 5-Chloro-2-fluoro-4-{2-[5-(hydroxymethyl)pyridin-3-yl]-4-(trifluoromethyl)phenoxy}-N-1,3-thiazol-4-ylbenzenesulfonamide]",>300
6,"N#Cc1cc(S(=O)(=O)Nc2nccs2)ccc1Oc1ccc(Cl)cc1-c1cnn[nH]1 [Example 694, 4-[4-chloro-2-(1H-1,2,3-triazol-5-yl)phenoxy]-3-cyano-N-1,3-thiazol-2-ylbenzenesulfonamide]",480
7,"CCn1nc(C(F)(F)F)c(Cl)c1-c1ccc(Oc2ccc(S(=O)(=O)Nc3nccs3)cc2C#N)cc1 [Example 695, 4-{4-[4-chloro-1-ethyl-3-(trifluoromethyl)-1H-pyrazol-5-yl]phenoxy}-3-cyano-N-1,3-thiazol-2-ylbenzenesulfonamide]",340

# Further lines, results first:
row,IC50 [nM],Structure (SMILES)
1,22,"O=S(=O)(Nc1ncc(F)s1)c1cc(F)c(Oc2ccc(Cl)cc2-c2cn[nH]c2)cc1F [Example 683, 4-[4-chloro-2-(1H-pyrazol-4-yl)phenoxy]-2,5-difluoro-N-(5-fluoro-1,3-thiazol-2-yl)benzenesulfonamide]"
2,130,"O=S(=O)(Nc1nccs1)c1ccc(Oc2ccc(Cl)cc2-c2cn[nH]c2)c(F)c1 [Example 685, 4-[4-chloro-2-(1H-pyrazol-4-yl)phenoxy]-3-fluoro-N-1,3-thiazol-2-ylbenzenesulfonamide]"
3,80,"O=S(=O)(Nc1nccs1)c1ccc(Oc2ccc(OC(F)(F)F)cc2-c2cn[nH]c2)c(F)c1 [Example 687, 3-fluoro-4-[2-(1H-pyrazol-4-yl)-4-(trifluoromethoxy)phenoxy]-N-1,3-thiazol-2-ylbenzenesulfonamide]"
4,110,"N#Cc1cc(S(=O)(=O)Nc2nccs2)ccc1Oc1ccc(Cl)cc1C1CNC1 [Example 690, 4-(2-azetidin-3-yl-4-chlorophenoxy)-3-cyano-N-1,3-thiazol-2-ylbenzenesulfonamide]"
5,110,"Cc1ccccc1-c1cc(Cl)ccc1Oc1ccc(S(=O)(=O)Nc2nccs2)cc1C#N [Example 692, 4-[(5-chloro-2′-methylbiphenyl-2-yl)oxy]-3-cyano-N-1,3-thiazol-2-ylbenzenesulfonamide]"
6,81,"Cn1cc(-c2cc(Cl)ccc2Oc2ccc(S(=O)(=O)Nc3nccs3)cc2C#N)cn1 [Example 693, 4-[4-chloro-2-(1-methyl-1H-pyrazol-4-yl)phenoxy]-3-cyano-N-1,3-thiazol-2-ylbenzenesulfonamide]"
7,78,"N#Cc1cc(S(=O)(=O)Nc2nccs2)ccc1Oc1ccc(I)cc1-c1cn[nH]c1 [Example 696, 3-cyano-4-[4-iodo-2-(1H-pyrazol-4-yl)phenoxy]-N-1,3-thiazol-2-ylbenzenesulfonamide]"
